Test results reported in publication PMC9321339, “Characterization in Inhibitory Effectiveness of Carbamazepine in Voltage-Gated Na^+ and Erg-Mediated K^+ Currents in a Mouse Neural Crest-Derived (Neuro-2a) Cell Line” (International Journal of Molecular Sciences, 2022).
Read-outs that look alike come from different tables or passages of the source.

System: T1, voltage-gated Na+ (NaV) channels / INa in Neuro-2a cells (mainly NaV1.2, 1.3, 1.4 and 1.7)
T1 construct: gene Scn2a
Type: cell-based
Conditions: step -100 to -10 mV, 30 ms, Ca2+-free Tyrode with 10 mM TEA, 0.5 mM CdCl2, 20-25 °C

What does the source list for NC(=O)N1c2ccccc2C=Cc2ccccc21 [Carbamazepine, 5H-dibenzo[b,f]azepine-5-carboxamide]?
IC50 (late (sustained) INa(L)): 18 µM; IC50 (peak (transient) INa(T)): 56 µM
